Measured values: ChEMBL document CHEMBL5257127, “SolS-catalyzed sulfoxidation of labionin to solabionin drives antibacterial activity of solabiomycins” (2023)
In brackets after ≈: the same amount, converted by molar mass. Activity calls are given as the source filed them. The calls are words filed in the database; no cut-off is given here.

Columns and labels:
[1] = test system: Micrococcus luteus; assay: Antibacterial activity against Micrococcus luteus assessed as bacterial growth inhibition by paper disc diffusion assay; format: functional
[2] = test system: Candida albicans; assay: Antifungal activity against Candida albicans assessed as fungal growth inhibition at 20 nmol by paper disc diffusion assay; format: functional, organism-based
[3] = test system: Escherichia coli; assay: Antibacterial activity against Escherichia coli assessed as bacterial growth inhibition at 20 nmol by paper disc diffusion assay; format: functional, organism-based
[4] = test system: Streptomyces lydicus; assay: Antibacterial activity against Streptomyces lydicus assessed as bacterial growth inhibition at 20 nmol by paper disc diffusion assay; format: functional, organism-based
[5] = test system: Micrococcus luteus; assay: Antibacterial activity against Micrococcus luteus assessed as bacterial growth inhibition at 20 nmol by paper disc diffusion assay; format: functional, organism-based
[6] = test system: Streptomyces sp.; assay: Antibacterial activity against Streptomyces sp. assessed as bacterial growth inhibition at 20 nmol by paper disc diffusion assay; format: functional, organism-based
[7] = test system: Staphylococcus aureus; assay: Antibacterial activity against Staphylococcus aureus assessed as bacterial growth inhibition by paper disc diffusion assay; format: functional
[8] = test system: Staphylococcus aureus; assay: Antibacterial activity against Staphylococcus aureus assessed as bacterial growth inhibition at 20 nmol by paper disc diffusion assay; format: functional, organism-based
[9] = test system: Mycolicibacterium smegmatis; assay: Antibacterial activity against Mycolicibacterium smegmatis assessed as bacterial growth inhibition by paper disc diffusion assay; format: functional
[10] = test system: Escherichia coli; assay: Antibacterial activity against Escherichia coli RFM795 harboring lptD gene mutation assessed as bacterial growth inhibition at 20 nmol by paper disc diffusion assay; format: functional, organism-based
[11] = test system: Streptomyces sp.; assay: Antibacterial activity against Streptomyces sp. TP-A0584 assessed as bacterial growth inhibition at 20 nmol by paper disc diffusion assay; format: functional, organism-based
[12] = test system: Saccharomyces cerevisiae; assay: Antifungal activity against Saccharomyces cerevisiae assessed as fungal growth inhibition at 20 nmol by paper disc diffusion assay; format: functional, organism-based
[13] = test system: Streptomyces nigrescens; assay: Antibacterial activity against Streptomyces nigrescens HEK616 assessed as bacterial growth inhibition at 20 nmol by paper disc diffusion assay; format: functional, organism-based
[14] = test system: Mycobacterium tuberculosis; assay: Antibacterial activity against Mycobacterium tuberculosis H37Rv assessed as bacterial growth inhibition; format: functional
[15] = test system: Mycolicibacterium smegmatis; assay: Antibacterial activity against Mycolicibacterium smegmatis assessed as bacterial growth inhibition at 20 nmol by paper disc diffusion assay; format: functional, organism-based

Structure (SMILES) | MIC [1] [µM] | Activity [2] | Activity [3] | Activity [4] | Activity [5] | Activity [6] | MIC [7] [µM] | Activity [8] | MIC [9] [µM] | Activity [10] | Activity [11] | Activity [12] | Activity [13] | MIC [14] [µM] | Activity [15]
C/C=C1/NC(=O)C(NC(=O)CNC(=O)CCCCCCCCCCCCNC(=N)N)CC2(C[S+]([O-])CC(C(=O)O)NC(=O)CNC(=O)CNC2=O)NC(=O)[C@H](C(C)C)NC1=O (stereo not given in full) | 25.6 (≈ 22.6 µg/mL) | inactive | Active | inactive | Active | Active | 51.2 (≈ 45.2 µg/mL) | Active | 25.6 (≈ 22.6 µg/mL) | inactive | Active | inactive | inactive | 0.35 (≈ 0.309 µg/mL) | Active
C/C=C1/NC(=O)C(NC(=O)CNC(=O)CCCCCCCCCCCCNC(=N)N)CC2(CSCC(C(=O)O)NC(=O)CNC(=O)CNC2=O)NC(=O)[C@H](C(C)C)NC1=O (stereo not given in full) | 102 (≈ 88.7 µg/mL) | – | Active | inactive | Active | Active | 102 (≈ 88.7 µg/mL) | Active | 51.2 (≈ 44.3 µg/mL) | inactive | – | – | inactive | – | Active
C/C=C1/NC(=O)C(NC(=O)CNC(=O)CCCCCCCCCCCCNC(=N)N)CC2(CSCC(C(=O)O)NC(=O)CNC(=O)CNC2=O)NC(=O)[C@H]([C@@H](C)CC)NC1=O (stereo not given in full) | 51.2 (≈ 45.1 µg/mL) | – | Active | inactive | Active | Active | 51.2 (≈ 45.1 µg/mL) | Active | 25.6 (≈ 22.5 µg/mL) | inactive | – | – | inactive | – | Active
C/C=C1/NC(=O)C(NC(=O)CNC(=O)CCCCCCCCCCCCNC(=N)N)CC2(C[S+]([O-])CC(C(=O)O)NC(=O)CNC(=O)CNC2=O)NC(=O)[C@H]([C@@H](C)CC)NC1=O (stereo not given in full) | 12.8 (≈ 11.5 µg/mL) | inactive | Active | inactive | Active | Active | 12.8 (≈ 11.5 µg/mL) | Active | 6.4 (≈ 5.73 µg/mL) | inactive | Active | inactive | inactive | 0.35 (≈ 0.314 µg/mL) | Active
NC[C@H]1O[C@H](O[C@H]2[C@H](O)[C@@H](O[C@H]3O[C@H](CO)[C@@H](O)[C@H](N)[C@H]3O)[C@H](N)C[C@@H]2N)[C@H](O)[C@@H](O)[C@@H]1O [KANAMYCIN] | 12.8 (≈ 6.2 µg/mL) | – | – | – | – | – | 0.2 (≈ 0.0969 µg/mL) | – | 1.6 (≈ 0.775 µg/mL) | – | – | – | – | – | –
